Results: patent US20240158418A1 (C4 Therapeutics, Inc., priority 2021, published 2024)

How the values were obtained:
[1] = molecular target: T1, pY1068 EGFR L858R-T790M (Homo sapiens, UniProt P00533, L858R/T790M); assay: Phospho-EGFR (pY1068) inhibition HTRF, NCI-H1975; type: cell-based; details: 6 hours, read-out: pEGFR IC50
T1 construct: NCI-H1975 (harboring EGFR heterozygous L858R-T790M mutations); host or cells: NCI-H1975
Excerpt: NCI-H1975 (harboring EGFR heterozygous L858R-T790M mutations) and NCI-H3255 (harboring EGFR heterozygous L858R mutation) were purchased from ATCC and NCI, respectively. NCI-H1975+CS (harboring EGFR heterozygous L858R-T790M-C797S mutations) was generated using CRISPR technology to introduce the additional C797S mutation by Horizon Discovery. A431 (harboring EGFR wildtype) was purchased from ATCC. RPMI 1640 no-phenol red medium and fetal bovine serum (FBS) were purchased from Gibco (Grand Island, NY, USA). Cell culture flasks and 384-well microplates were acquired from VWR (Radnor, PA, USA). Phosphorylated (pY1068) EGFR and Total EGFR (using L858R-specific detection antibody and pan-EGFR antibody for EGFR mutant cell lines and EGFR wild-type cell lines, respectively) HTRF assay kits were purchased from Cisbio (Bedford, MA, USA).
Degradation of EGFR protein containing L858R mutation or wild-type was determined based on quantification of FRET signal using a Total EGFR (L858R-specific or pan-EGFR detecting) HTRF assay kit. Phospho-EGFR (pEGFR) inhibition was determined based on quantification of FRET signal using a pY1068 EGFR HTRF assay kit. In separate assay plates, test compounds were added to the 384-well plate from a top concentration of 10 μM with 11 points, half log titration in duplicates. For each assay, 12.5 uL of cells suspended in assay media (RPMI 1640 no-phenol red medium+10% FBS) at cell densities indicated for each cell line in Table 8 below were dispensed using a multi-channel pipette to 384-well low volume white HTRF microplates containing a duplicate concentration range of test compounds and DMSO controls. The plates were kept at 37° C. with 5% CO2 for 6 hours and then incubated with either phospho EGFR or Total EGFR HTRF detection antibodies according to the cell line and EGFR mutant being assayed. Cells treated in the absence of the test compound were the negative control. Positive control was set by wells containing all reagents but no cells. FRET signal was acquired on EnVision™ Multilabel Reader (PerkinElmer, Santa Clara, CA, USA). Compound concentration that achieves 50% degradation and inhibition was reported as DC50 and IC50, respectively.

[2] = test system: BaF3 cells expressing EGFR L858R; assay: Ba/F3 EGFR cell viability (CellTiter-Glo), L858R; type: cell-based; details: Mus musculus, read-out: CTGlo (GI50)
Excerpt: (§1) RPMI 1640 media, cell culture flasks, and 384-well microplates were purchased from VWR (Radnor, PA, USA). Fetal bovine serum (FBS) was purchased from Life Technologies (Carlsbad, CA, USA) and CellTiter-Glo® was purchased from Promega (Madison, WI, USA). The Ba/F3 parental cell line was purchased from CrownBio (Santa Clara, CA). BaF3 cell lines ectopically expressing the EGFR mutations L858R, L858R-T790M, L858R-C797S, and L858R-T790M-C797S were purchased from CrownBio and EGFR mutations L858R-L718Q, L858R-T790M-L718Q, L858R-L792H, and L858R-T790M-L792H, were purchased from Signosis (Santa Clara, CA).
(§2) Cell viability was assessed based on the quantification of ATP using the CellTiter-Glo® assay (Promega, Madison, WI, USA). To determine the effect of compounds on cell viability, all Ba/F3 cell lines were plated at a cell density of 2000 cells/well in 384-well plates using RPMI 1640+10% FBS and treated with compounds of interest using a 10-point half-log dilution series in duplicate for 72 hours, with the highest dose set at […]. CellTiter-Glo® reagent was then added and luminescence signals were measured using an EnVision™ Multimode plate reader (Perkin Elmer, Santa Clara, CA). For data normalization, cells untreated with the test compounds at Time=72 hours were set to 100% (equivalent to maximal cell growth after 72 hours); cells untreated with the test compounds at Time=0 hours were set to 0% (equivalent to cytostasis); and media-only wells were set to −100% (equivalent to complete cytotoxicity). % Viability was determined by normalizing the signal with positive and DMSO treated negative controls on the same microtiter plate. The half-maximal inhibition of cell growth (GI50) is computed from where the fitted curve crosses 50% while the half-maximal lethal dose (LD50) is computed from where the fitted curve crosses −50%.

[3] = test system: BaF3 cells expressing EGFR L858R-T790M; assay: Ba/F3 EGFR cell viability (CellTiter-Glo), L858R-T790M; type: cell-based; details: Mus musculus, read-out: CTGlo (GI50)
Excerpt: as §1, §2

[4] = test system: BaF3 cells expressing EGFR L858R-C797S; assay: Ba/F3 EGFR cell viability (CellTiter-Glo), L858R-C797S; type: cell-based; details: Mus musculus, read-out: CTGlo (GI50)
Excerpt: as §1, §2

[5] = test system: BaF3 cells expressing EGFR L858R-T790M-C797S; assay: Ba/F3 EGFR cell viability (CellTiter-Glo), L858R-T790M-C797S; type: cell-based; details: Mus musculus, read-out: CTGlo (GI50)
Excerpt: as §1, §2

[6] = test system: BaF3 cells expressing wild-type EGFR; assay: Ba/F3 EGFR cell viability (CellTiter-Glo), wild-type EGFR; type: cell-based; details: Mus musculus, Ba/F3 WT EGFR, read-out: CTGlo (GI50)
[7] = test system: BaF3 cells expressing EGFR L858R-L718Q; assay: Ba/F3 EGFR cell viability (CellTiter-Glo), L858R-L718Q; type: cell-based; details: Mus musculus, read-out: CTGlo (GI50)
Excerpt: as §1, §2

[8] = test system: BaF3 cells expressing EGFR L858R-L792H; assay: Ba/F3 EGFR cell viability (CellTiter-Glo), L858R-L792H; type: cell-based; details: Mus musculus, read-out: CTGlo (GI50)
Excerpt: as §1, §2

[9] = test system: BaF3 cells expressing EGFR L858R-T790M-L792H; assay: Ba/F3 EGFR cell viability (CellTiter-Glo), L858R-T790M-L792H; type: cell-based; details: Mus musculus, read-out: CTGlo (GI50)
Excerpt: as §1, §2

[10] = test system: engineered triple mutant EGFR (L858R-T790M-C797S) BaF3 tumors; assay: BaF3 triple mutant EGFR allograft efficacy; type: in vivo, female BALB/c nude mice; details: for efficacy on BaF3 tumor volume: Compound 1 or 2 at 20, 50, 100 mg/kg/day PO BID, osimertinib 25 mg/kg/day PO QD, 14 days
Protocol: Each Compound was administered BID (twice a day) orally (PO).
Tumor volume was measured twice weekly in two dimensions using calipers, and volume (mm^3) was calculated using the formula: V=0.5 a×b^2 where a and b are the long and short diameters of the tumor in mm, respectively. […] Treatment began on Day 0 with established subcutaneous BaF3 tumors with a mean tumor volume (MTV) of 108 mm^3.
Body weight and MTV were measured on a 2× weekly schedule. Statistical analysis was performed using a one-way ANOVA followed by Dunnett's multiple comparison test. Data are expressed as MTV±SEM.

T1 sequence (P00533 25-1210 T790M/L858R): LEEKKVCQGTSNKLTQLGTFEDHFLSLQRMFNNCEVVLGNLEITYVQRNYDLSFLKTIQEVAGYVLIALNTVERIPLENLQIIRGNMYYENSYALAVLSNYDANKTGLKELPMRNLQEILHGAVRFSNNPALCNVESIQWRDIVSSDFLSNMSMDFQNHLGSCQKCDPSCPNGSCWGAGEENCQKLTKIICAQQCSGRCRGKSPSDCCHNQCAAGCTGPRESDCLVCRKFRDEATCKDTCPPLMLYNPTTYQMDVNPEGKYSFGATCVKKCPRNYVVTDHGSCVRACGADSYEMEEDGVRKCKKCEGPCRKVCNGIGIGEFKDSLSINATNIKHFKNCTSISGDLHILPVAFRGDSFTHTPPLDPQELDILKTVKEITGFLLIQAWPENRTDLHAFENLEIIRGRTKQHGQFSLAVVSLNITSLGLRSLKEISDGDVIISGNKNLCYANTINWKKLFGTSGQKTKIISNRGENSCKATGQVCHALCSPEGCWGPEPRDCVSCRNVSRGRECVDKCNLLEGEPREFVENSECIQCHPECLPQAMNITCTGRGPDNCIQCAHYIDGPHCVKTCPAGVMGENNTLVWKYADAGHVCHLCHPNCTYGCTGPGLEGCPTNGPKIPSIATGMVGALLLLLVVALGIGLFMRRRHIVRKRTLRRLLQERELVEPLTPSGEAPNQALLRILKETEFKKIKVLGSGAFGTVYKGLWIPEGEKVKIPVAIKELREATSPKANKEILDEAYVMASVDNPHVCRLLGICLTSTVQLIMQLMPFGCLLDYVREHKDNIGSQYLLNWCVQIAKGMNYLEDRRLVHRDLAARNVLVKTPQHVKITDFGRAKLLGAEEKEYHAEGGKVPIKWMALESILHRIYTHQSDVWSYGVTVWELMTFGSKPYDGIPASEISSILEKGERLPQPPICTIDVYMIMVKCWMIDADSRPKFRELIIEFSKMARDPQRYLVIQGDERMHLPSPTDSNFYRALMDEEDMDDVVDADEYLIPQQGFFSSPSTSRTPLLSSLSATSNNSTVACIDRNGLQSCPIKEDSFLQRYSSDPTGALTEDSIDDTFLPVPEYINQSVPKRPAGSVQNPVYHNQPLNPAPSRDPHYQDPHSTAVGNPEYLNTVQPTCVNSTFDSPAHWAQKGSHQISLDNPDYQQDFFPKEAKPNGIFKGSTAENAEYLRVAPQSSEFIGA

SMILES: O=C1CC[C@H](Nc2ccc(N3CCC(O)(CC(=O)N4CC5(C4)CN(c4ccc(-c6cc(F)c7c(c6)C(=O)N(C(C(=O)Nc6nccs6)c6ncn8c6CCC8)C7)cc4)C5)CC3)c(F)c2)C(=O)N1 (stereo partly drawn) [Compound 1, 2-(6,7-dihydro-5H-pyrrolo[1,2-c]imidazol-1-yl)-2-[6-[4-[2-[2-[1-[4-[[(3S)-2,6-dioxo-3-piperidyl]amino]-2-fluoro-phenyl]-4-hydroxy-4-piperidyl]acetyl]-2,6-diazaspiro[3.3]heptan-6-yl]phenyl]-4-fluoro-1-oxo-isoindolin-2-yl]-N-thiazol-2-yl-acetamide]
- IC50 [1]: 9 nM
- GI50 [2]: 12 nM
- GI50 [3]: 9 nM
- GI50 [4]: 5 nM
- GI50 [5]: 7 nM
- GI50 [6]: 1620 nM
- GI50 [7]: 24 nM
- GI50 [8]: 9 nM
- GI50 [9]: 21 nM
- tumor regression ([10]; BaF3 EGFR-L858R-T790M-C797S allograft mouse model, oral dosing): 60%
- efficacy on BaF3 tumor volume [10]: reduced tumor volume

SMILES: Cn1nc(N2CCC(=O)NC2=O)c2ccc([C@H]3CCN(CC(=O)N4CC5(C4)CN(c4ccc(-c6cc(F)c7c(c6)C(=O)N(C(C(=O)Nc6nccs6)c6ncn8c6CCC8)C7)cc4)C5)CC3(F)F)cc21 (stereo partly drawn) [Compound 2, 2-(6,7-dihydro-5H-pyrrolo[1,2-c]imidazol-1-yl)-2-[6-[4-[2-[2-[(4R)-4-[3-(2,4-dioxohexahydropyrimidin-1-yl)-1-methyl-indazol-6-yl]-3,3-difluoro-1-piperidyl]acetyl]-2,6-diazaspiro[3.3]heptan-6-yl]phenyl]-4-fluoro-1-oxo-isoindolin-2-yl]-N-thiazol-2-yl-acetamide]
- IC50 [1]: 14 nM
- GI50 [2]: 3 nM
- GI50 [3]: 6 nM
- GI50 [4]: 3 nM
- GI50 [5]: 5 nM
- GI50 [6]: 310 nM
- GI50 [7]: 6 nM
- GI50 [8]: 4 nM
- GI50 [9]: 9 nM
- efficacy on BaF3 tumor volume [10]: reduced tumor volume
